Test results taken from ChEMBL document CHEMBL1145342, “Structure-based drug design and structural biology study of novel nonpeptide inhibitors of severe acute respiratory syndrome coronavirus main protease” (J Med Chem, 2006).
pIC50: −log10 of the molar value.

Experiments:
Replicase polyprotein 1a = Replicase polyprotein 1a (Severe acute respiratory syndrome-related coronavirus, UniProt P0C6U8); test: Inhibition of SARS coronavirus main protease
[1] = target: Replicase polyprotein 1a (Severe acute respiratory syndrome-related coronavirus) (UniProt P0C6U8); test: Inhibition of SARS coronavirus main protease at 10 uM

O=S(=O)(Cc1[nH]c(-c2ccc(Cl)s2)c[s+]1)c1cccs1 showed a pIC50 (Replicase polyprotein 1a) of 4.74.

Work on O=C(Cc1nccs1)c1nccs1 yielded a pIC50 (Replicase polyprotein 1a) of 4.40.

In the case of CCOC(=O)C(=CNc1ccc(S(=O)(=O)c2ccc(/N=C/C(C(=O)OCC)=C(\O)OCC)cc2)cc1)C(=O)OCC, the pIC50 (Replicase polyprotein 1a) was 4.49.

Cc1noc(NC(=O)c2ccc(-c3cc(C(F)(F)F)nn3C)s2)c1[N+](=O)[O-] gave a pIC50 (Replicase polyprotein 1a) of 5.30.

Cc1oc(C(C)(C)C)cc1-c1cc(NS(=O)(=O)c2cccs2)[nH]n1 was tested, and the pIC50 (Replicase polyprotein 1a) was 5.00.

O=[N+]([O-])c1ccc(S(=O)(=O)c2ccc([N+](=O)[O-])cc2)cc1 was tested, and the pIC50 (Replicase polyprotein 1a) was 4.60.

Work on CC(=O)c1ccccc1S(=O)(=O)c1ccccc1C(=O)O yielded a pIC50 (Replicase polyprotein 1a) of 4.80.

O=C(Oc1ccc(S(=O)(=O)c2ccc(OC(=O)C(Cl)=C(Cl)Cl)cc2)cc1)C(Cl)=C(Cl)Cl showed a pIC50 (Replicase polyprotein 1a) of 6.05.

For COc1ccc([N+](=O)[O-])c(S(=O)(=O)c2ccccc2)n1, the inhibition [1] was 58%.

CSc1[nH]nc(NC(=O)c2cccs2)c1S(=O)(=O)c1ccccc1 gave a pIC50 (Replicase polyprotein 1a) of 4.82.

Compound O=[N+]([O-])c1ccc(S(=O)(=O)c2ccc(Cl)cc2)[n+]([O-])c1 has a pIC50 (Replicase polyprotein 1a) of 4.82.

With O=C(O)c1ccc(S(=O)(=O)c2cc(Br)c(O)c(Br)c2)cc1 the pIC50 (Replicase polyprotein 1a) was 4.80.

Work on CCOC(=O)/C(C#N)=C/Nc1ccc(S(=O)(=O)c2ccc(/N=C/C(C#N)=C(\O)OCC)cc2)cc1 yielded a pIC50 (Replicase polyprotein 1a) of 4.80.

O=[N+]([O-])c1cc(C(F)(F)F)ccc1S(=O)(=O)c1ccc(Cl)cc1 showed a pIC50 (Replicase polyprotein 1a) of 4.92.

In the case of CC1(C)CC(=O)c2c(NCc3ccco3)sc(C#N)c2C1, the pIC50 (Replicase polyprotein 1a) was 4.80.

For Nc1ncc(S(=O)(=O)c2ccc(Cl)cc2)c(N)n1, the pIC50 (Replicase polyprotein 1a) was 5.22.

In the case of Cc1nn(C)c(NCc2ccc(-c3cccs3)s2)c1[N+](=O)[O-], the pIC50 (Replicase polyprotein 1a) was 4.70.

In the case of Clc1ccc(-c2noc(CSC3=NCCN3)n2)cc1, the inhibition [1] was 61%.
